From PubChem BioAssay (NCI)
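Assay format: 96-well plates, 48-hour exposure. Here, GI50 denotes the concentration required for 50% inhibition of growth. TGI: total growth inhibition.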

Key:
Experiment in all cases: NCI tumour cell line growth inhibition, 48 h
786-0 renal = test system: 786-0 renal
A498 renal = test system: A498 renal
A549 NSCLC = test system: A549 NSCLC
ACHN renal = test system: ACHN renal
BT-549 breast = test system: BT-549 breast
CAKI-1 renal = test system: CAKI-1 renal
CCRF-CEM leukemia = test system: CCRF-CEM leukemia
COLO 205 colon = test system: COLO 205 colon
DU-145 prostate = test system: DU-145 prostate
EKVX NSCLC = test system: EKVX NSCLC
HCC-2998 colon = test system: HCC-2998 colon
HCT-116 colon = test system: HCT-116 colon
HCT-15 colon = test system: HCT-15 colon
HL-60(TB) leukemia = test system: HL-60(TB) leukemia
HOP-62 NSCLC = test system: HOP-62 NSCLC
HOP-92 NSCLC = test system: HOP-92 NSCLC
HS 578T breast = test system: HS 578T breast
HT29 colon = test system: HT29 colon
IGROV1 ovarian = test system: IGROV1 ovarian
K-562 leukemia = test system: K-562 leukemia
KM12 colon = test system: KM12 colon
LOX IMVI melanoma = test system: LOX IMVI melanoma
M14 melanoma = test system: M14 melanoma
MALME-3M melanoma = test system: MALME-3M melanoma
MCF7 breast = test system: MCF7 breast
MDA-MB-435 = test system: MDA-MB-435
MDA-MB-468 breast = test system: MDA-MB-468 breast
MOLT-4 leukemia = test system: MOLT-4 leukemia
NCI-H226 lung = test system: NCI-H226 lung
NCI-H23 lung = test system: NCI-H23 lung
NCI-H460 lung = test system: NCI-H460 lung
NCI-H522 lung = test system: NCI-H522 lung
NCI/ADR-RES ovarian = test system: NCI/ADR-RES ovarian
OVCAR-3 ovarian = test system: OVCAR-3 ovarian
OVCAR-4 ovarian = test system: OVCAR-4 ovarian
OVCAR-5 ovarian = test system: OVCAR-5 ovarian
OVCAR-8 ovarian = test system: OVCAR-8 ovarian
PC-3 prostate = test system: PC-3 prostate
RPMI-8226 leukemia = test system: RPMI-8226 leukemia
RXF 393 renal = test system: RXF 393 renal
SF-268 CNS = test system: SF-268 CNS
SF-295 CNS = test system: SF-295 CNS
SF-539 CNS = test system: SF-539 CNS
SK-MEL-28 melanoma = test system: SK-MEL-28 melanoma
SK-MEL-5 melanoma = test system: SK-MEL-5 melanoma
SK-OV-3 ovarian = test system: SK-OV-3 ovarian
SN12C renal = test system: SN12C renal
SNB-19 CNS = test system: SNB-19 CNS
SR leukemia = test system: SR leukemia
SW-620 colon = test system: SW-620 colon
T-47D breast = test system: T-47D breast
TK-10 renal = test system: TK-10 renal
U251 CNS = test system: U251 CNS
UACC-257 melanoma = test system: UACC-257 melanoma
UACC-62 melanoma = test system: UACC-62 melanoma

## O=C1N/C(=N\c2nccs2)S/C1=C\c1ccc([N+](=O)[O-])cc1
786-0 renal
  GI50: 6.17 µM
  TGI: 72.9 µM
A498 renal
  GI50: 14.5 µM
  TGI: 39.8 µM
A549 NSCLC
  GI50: 4.89 µM
  TGI: > 100 µM
ACHN renal
  GI50: 5.49 µM
  TGI: 35.2 µM
BT-549 breast
  GI50: 6.87 µM
  TGI: 41.4 µM
CAKI-1 renal
  GI50: 12.7 µM
  TGI: 82.8 µM
CCRF-CEM leukemia
  GI50: 3.84 µM
  TGI: 32.5 µM
COLO 205 colon
  GI50: 7.7 µM
  TGI: 23.9 µM
DU-145 prostate
  GI50: 11.9 µM
  TGI: > 100 µM
EKVX NSCLC
  GI50: 4.71 µM
  TGI: 27.8 µM
HCC-2998 colon
  GI50: 6.93 µM
  TGI: 30.4 µM
HCT-116 colon
  GI50: 4.44 µM
  TGI: 19 µM
HCT-15 colon
  GI50: 4.29 µM
  TGI: > 100 µM
HL-60(TB) leukemia
  GI50: 3.62 µM
  TGI: 24.5 µM
HOP-62 NSCLC
  GI50: 6.77 µM
  TGI: 60.7 µM
HOP-92 NSCLC
  GI50: 4.46 µM
  TGI: 38.3 µM
HS 578T breast
  GI50: 11.6 µM
  TGI: 81.6 µM
HT29 colon
  GI50: 18.5 µM
  TGI: > 100 µM
IGROV1 ovarian
  GI50: 6.89 µM
  TGI: 30.8 µM
K-562 leukemia
  GI50: 4.24 µM
  TGI: > 100 µM
KM12 colon
  GI50: 5.91 µM
  TGI: 32.4 µM
LOX IMVI melanoma
  GI50: 4.75 µM
  TGI: 34.2 µM
M14 melanoma
  GI50: 9.86 µM
  TGI: 39.6 µM
MALME-3M melanoma
  GI50: 11.2 µM
  TGI: 27.2 µM
MCF7 breast
  GI50: 4.44 µM
  TGI: 20.4 µM
MDA-MB-435
  GI50: 12 µM
  TGI: > 100 µM
MDA-MB-468 breast
  GI50: 4.62 µM
  TGI: 25.8 µM
MOLT-4 leukemia
  GI50: 2.54 µM
  TGI: 7.5 µM
NCI-H226 lung
  GI50: 12.5 µM
  TGI: 68.2 µM
NCI-H23 lung
  GI50: 6.8 µM
  TGI: 70 µM
NCI-H460 lung
  GI50: 4.12 µM
  TGI: 19.7 µM
NCI-H522 lung
  GI50: 7.47 µM
  TGI: 33.9 µM
NCI/ADR-RES ovarian
  GI50: 5.03 µM
  TGI: 37.3 µM
OVCAR-3 ovarian
  GI50: 4.73 µM
  TGI: 29.4 µM
OVCAR-4 ovarian
  GI50: 7.01 µM
  TGI: 67.5 µM
OVCAR-5 ovarian
  GI50: 16.1 µM
  TGI: 95.6 µM
OVCAR-8 ovarian
  GI50: 6.43 µM
  TGI: 68.9 µM
PC-3 prostate
  GI50: 5.98 µM
  TGI: > 100 µM
RPMI-8226 leukemia
  GI50: 3.56 µM
  TGI: 31.6 µM
RXF 393 renal
  GI50: 12.4 µM
  TGI: 46.3 µM
SF-268 CNS
  GI50: 10.1 µM
  TGI: > 100 µM
SF-295 CNS
  GI50: 5.11 µM
  TGI: 40.5 µM
SF-539 CNS
  GI50: 5.62 µM
  TGI: 26.9 µM
SK-MEL-28 melanoma
  GI50: 14 µM
  TGI: > 100 µM
SK-MEL-5 melanoma
  GI50: 7.45 µM
  TGI: 20.2 µM
SK-OV-3 ovarian
  GI50: 15.7 µM
  TGI: 63.9 µM
SN12C renal
  GI50: 5.47 µM
  TGI: 63.5 µM
SNB-19 CNS
  GI50: 3.58 µM
  TGI: 70.6 µM
SR leukemia
  GI50: 3.41 µM
  TGI: 18 µM
SW-620 colon
  GI50: 4.77 µM
  TGI: > 100 µM
T-47D breast
  GI50: 5.05 µM
  TGI: 53.1 µM
TK-10 renal
  GI50: 12.8 µM
  TGI: 59.3 µM
U251 CNS
  GI50: 4.6 µM
  TGI: > 100 µM
UACC-257 melanoma
  GI50: 12.4 µM
  TGI: 32.5 µM
UACC-62 melanoma
  GI50: 5.08 µM
  TGI: 23.1 µM
